Common to all, as to type: cell-based, human
The test system of one assay is PNT-1A. Put plainly: WST-1 cytotoxicity, PNT-1A normal cells. To be noted: PNT-1A normal cell. The method, then:
(§1) Cancer and normal cell lines were purchased from ATCC and stored in liquid nitrogen. HT-29 (colon adenoma cancer), HeLa (cervix adenoma cancer cell), MDA-MB-231 (breast adenoma cancer cell) and HEK-293 (embryonic kidney epithelial cell), PNT-1A (normal prostate cells) cell lines were incubated in DMEM: F-12 and RPMI-1640, including 10% Foetal Bovine Serum (FBS), 100 μg/mL streptomycin/100 IU/mL penicillin, at 37 °C in an incubator containing 5% CO2, 95% air in a humid atmosphere.
(§2) The cytotoxic effects of the substances were evaluated with WST-1 kits (Roche, Germany) in accordance with the manufacturer’s protocols. The cells were plated on 96-well plates (10^4 cells in each well). After incubation for 24 h, the media were discarded and the substances and Cisplatin as the control drug, at doses of 0, 2.5, 5, 10, 25, 50, 100, and 200 μM, were incubated for 24, 48, and 72 h. WST-1 reactive of 10 µl was added to all wells. Following 4 h incubation, the measurements were taken on a plate reader (Spectramax M5) at wavelengths of 450 and 630 nm. Graphs were then created and the IC50 value of each substance was calculated.
For orientation: Tetrazolium dyes change colour on reduction, which living cells bring about.

For the next assay, the system named is HeLa. Put plainly: WST-1 cytotoxicity, HeLa. The method, then:
as §1, §2

A further assay relates to MDA-MB-231. Kind of assay: WST-1 cytotoxicity, MDA-MB-231. The method, then:
as §1, §2

The next assay has as its system HEK-293. Put plainly: WST-1 cytotoxicity, HEK-293 normal cells. To be noted: HEK-293 normal cell. The method, then:
as §1, §2

The next assay concerns HT-29. Put plainly: WST-1 cytotoxicity, HT-29. How it is done:
as §1, §2

pIC50: −log10 of the molar value.

Broadly, the pIC50 is the IC50 on a negative log10 scale, so that one unit is a factor of ten. Low readings indicate a high IC50, high ones a low IC50. With `NS(=O)(=O)c1ccc(CCN=Cc2cc(Cl)cc(Cl)c2O)cc1` [Compound A-2], the negative-log IC50 (pIC50) in the assay on PNT-1A (24 h) was 3.78; in the assay on PNT-1A (48 h), 3.77; with PNT-1A (72 h) it was 4.00; in the assay on HeLa (24 h), 3.46; with HeLa (48 h) it was 3.52; in the assay with HeLa (72 h) it was 3.91. Besides, the negative logarithm of the IC50 (pIC50) with MDA-MB-231 (MDA-MB-231, 24 h) is 3.90; in the assay with MDA-MB-231 (MDA-MB-231, 48 h), 3.84; with MDA-MB-231 (MDA-MB-231, 72 h), 4.00; with HEK-293 (24 h), 3.92; in the assay with HEK-293 (48 h), 4.00; in the assay on HEK-293 (72 h), 4.18. The pIC50 with HT-29 (HT-29, 24 h) is 3.63; in the assay with HT-29 (HT-29, 48 h) it was 3.59; in the assay with HT-29 (HT-29, 72 h), 3.87.

On to `NS(=O)(=O)c1ccc(CCN=Cc2ccccc2O)cc1` [Compound A-3], for which the negative logarithm of the IC50 (pIC50) in the assay on PNT-1A (24 h) was 4.34; with PNT-1A (48 h), 4.36; with PNT-1A (72 h), 4.63; in the assay with HeLa (24 h), 3.91; in the assay on HeLa (48 h), 3.95; in the assay on HeLa (72 h), 4.12. Moreover, the pIC50 in the assay on MDA-MB-231 (MDA-MB-231, 24 h) is 4.01; with MDA-MB-231 (MDA-MB-231, 48 h), 4.09; in the assay with MDA-MB-231 (MDA-MB-231, 72 h), 4.18; in the assay with HEK-293 (24 h), 4.01; with HEK-293 (48 h), 4.18; in the assay on HEK-293 (72 h), 4.49. Moreover, the negative logarithm of the IC50 (pIC50) in the assay on HT-29 (HT-29, 24 h) was 3.84; in the assay on HT-29 (HT-29, 48 h), 4.00; in the assay on HT-29 (HT-29, 72 h), 4.06.

`NS(=O)(=O)c1ccc(CCNCc2ccccc2O)cc1` [Compound B-3]: the pIC50 with PNT-1A (24 h) was 4.00; in the assay on PNT-1A (48 h) it was 4.05; in the assay on PNT-1A (72 h), 4.15; in the assay with HeLa (24 h) it was 3.81; with HeLa (48 h), 3.87; in the assay with HeLa (72 h), 4.34. The negative logarithm of the IC50 (pIC50) in the assay with MDA-MB-231 (MDA-MB-231, 24 h) is 3.46; in the assay on MDA-MB-231 (MDA-MB-231, 48 h), 3.63; in the assay on MDA-MB-231 (MDA-MB-231, 72 h), 3.90; in the assay on HEK-293 (24 h) it was 3.75; in the assay with HEK-293 (48 h) it was 3.92; in the assay with HEK-293 (72 h) it was 4.34. The negative logarithm of the IC50 (pIC50) in the assay on HT-29 (HT-29, 24 h) is 3.25; with HT-29 (HT-29, 48 h), 3.35; with HT-29 (HT-29, 72 h), 3.68.

As to `NS(=O)(=O)c1ccc(CCNCc2cc(Cl)ccc2O)cc1` [Compound B-1], the pIC50 in the assay with PNT-1A (24 h) is 3.23; in the assay with PNT-1A (48 h) it was 3.72; in the assay on PNT-1A (72 h), 3.43; in the assay on HeLa (24 h) it was 3.66; in the assay with HeLa (48 h) it was 3.95; in the assay on HeLa (72 h), 4.00. Further, the pIC50 in the assay with MDA-MB-231 (MDA-MB-231, 24 h) was 3.31; in the assay on MDA-MB-231 (MDA-MB-231, 48 h), 3.23; in the assay on MDA-MB-231 (MDA-MB-231, 72 h) it was 3.61; in the assay on HEK-293 (24 h), 3.49; in the assay with HEK-293 (48 h), 3.68; with HEK-293 (72 h), 4.20. Moreover, the negative logarithm of the IC50 (pIC50) in the assay on HT-29 (HT-29, 24 h) was 3.22; in the assay on HT-29 (HT-29, 48 h), 4.20; in the assay with HT-29 (HT-29, 72 h), 4.04.

As to `NS(=O)(=O)c1ccc(CCNCc2cc(Cl)cc(Cl)c2O)cc1` [Compound B-2], the pIC50 with PNT-1A (24 h) is 4.26; with PNT-1A (48 h) it was 4.63; in the assay on PNT-1A (72 h), 4.91; with HeLa (24 h) it was 3.63; in the assay on HeLa (48 h), 3.67; in the assay with HeLa (72 h) it was 3.81. Further, the pIC50 in the assay with MDA-MB-231 (MDA-MB-231, 24 h) is 3.84; in the assay with MDA-MB-231 (MDA-MB-231, 48 h), 4.36; in the assay with MDA-MB-231 (MDA-MB-231, 72 h), 4.27; in the assay on HEK-293 (24 h), 3.64; in the assay on HEK-293 (48 h) it was 3.67; with HEK-293 (72 h) it was 3.92. The pIC50 was 3.45 in the assay on HT-29 (HT-29, 24 h); 3.70 in the assay with HT-29 (HT-29, 48 h); 3.81 in the assay on HT-29 (HT-29, 72 h).

On to `N.N.[Cl][Pt][Cl]` [Cisplatin, reference compound], for which the pIC50 in the assay with PNT-1A (24 h) is 4.87; with PNT-1A (48 h), 4.94; with PNT-1A (72 h), 5.09; with HeLa (24 h), 4.54; in the assay on HeLa (48 h) it was 5.12; in the assay on HeLa (72 h) it was 5.21. For the same compound, the pIC50 with MDA-MB-231 (MDA-MB-231, 24 h) was 4.67; in the assay with MDA-MB-231 (MDA-MB-231, 48 h), 4.99; with MDA-MB-231 (MDA-MB-231, 72 h) it was 5.15; in the assay on HEK-293 (24 h), 4.53; with HEK-293 (48 h) it was 4.85; in the assay on HEK-293 (72 h) it was 5.70. The pIC50 is 4.63 with HT-29 (HT-29, 24 h); 4.70 in the assay on HT-29 (HT-29, 48 h); 4.79 in the assay on HT-29 (HT-29, 72 h).

Values taken from paper PMC6211230, “Assessment of the antiproliferative and apoptotic roles of sulfonamide carbonic anhydrase IX inhibitors in HeLa cancer cell line” (Journal of Enzyme Inhibition and Medicinal Chemistry, 2018).
